Results reported in patent publication US20050112123A1, “Methods of treating proteinuria” (priority 2003, published 2005).

What was measured:
podocytes = test: Hoecht's Assay of apoptosis for dose selection; format: cell-based, mouse; conditions: 25 mM ATRA
Protocol: The dose of 25 mMol/ml ATRA was selected after exposing cells to varying mMol doses of ATRA (10, 25, 50, 75, 100) and then measuring apoptosis with the Hoecht's Assay according to the manufacturer's directions. Apoptosis was not increased at 25 mM.

[1] = tested on: heat sensitive mouse podocytes; test: Immunofluorescent staining of cultured HSMP (nephrin, podocin); conditions: 200 μM ATRA
[2] = tested on: conditionally immortalized podocytes from transgenic HIV Tg-26; test: MTT proliferation assay, HIV transgenic (Tg) podocytes under growth restriction; format: cell-based, mouse; conditions: 25 ATRA, FIG. 6
Protocol: (§1) To test the hypothesis that ATRA altered the proliferative capacity of podocytes in HIV transgenic mice, conditionally immortalized podocytes harvested from transgenic HIV Tg-26 (Tg) and conditionally immortalized podocytes from transgene free or wild-type podocytes (controls) were compared in a series of studies. Both transgenic and wild-type cell lines were initially plated in “growth permissive” conditions (33° C.) and grown in 10 ml of “standard media,” consisting of 90% RPMI 1640 (Invitrogen, Grand Island, N.Y.), 10% fetal bovine serum (Hyclone, Logan, Utah), 1% L-glutamine (Irvine Scientific, Santa Ana, Calif.), 1% pen-strep (Biosource, Rockville, Md.), 1% sodium bicarbonate (Sigma-Aldrich, St Louis, Mo.) and 1% HEPES buffer (Sigma-Aldrich, Santa, Ana, Calif.), and 1% sodium pyruvate (Irvine Scientific, Santa Ana, Calif.). For growth promotion, 5 μl of mouse gamma interferon were added to 10 ml of media. […]
(§2) Each study group was assessed for proliferation (see below) at three different time points as follows: (i) day “1” of growth restriction which was defined as 24 h after plating cells into growth restrictive conditions; (ii) day 7 of growth restrictive conditions. […]
(§3) Cell proliferation was assessed by the MTT (Promega, Madison, Wis.) assay on days 1, 7, and 14 of growth restriction. […]

[3] = tested on: heat sensitive mouse podocytes; test: MTT cell proliferation assay, heat sensitive mouse podocytes (HSMP), growth permissive; format: cell-based; conditions: heat sensitive mouse podocytes under growth permissive conditions; at higher concentrations than rat podocytes
Protocol: (§4) Exposure ofpodocvtes to ATRA. Rat podocytes, mouse podocytes, and growth permissive HSMP were plated at a concentration of 15,000 cell/cm^2 in standard media and allowed to adhere overnight.

[4] = tested on: conditionally immortalized wild-type podocytes; test: MTT proliferation assay, wild-type (WT) podocytes under growth restriction; format: cell-based, mouse
Protocol: as §1, §2, §3

normal mice = test: Pilot study of adverse side effects in normal mice; format: in vivo, mouse; conditions: 16 mg/kg i.p. for 7 days
Protocol: Pilot studies were performed to determine if giving ATRA 16 mg/kg i.p. for 7 days caused adverse side effects in normal mice. […] To determine the effect of ATRA on podocytes in vivo, mice with experimental glomerular disease were given ATRA intraperitoneally (i.p.) on two consecutive days. […] Renal function was assessed by measuring proteinuria and BUN.

cultured rat podocytes = test: Cell morphology by scanning electron microscopy, cultured rat podocytes; format: cell-based
Protocol: as §4
Cell morphology was carefully examined under light microscopy on an inverted scope. Cellular morphology was also examined by scanning electron microscopy on adherent cells fixed in half-strength Karnovsky's solution.

rat podocytes = test: MTT cell proliferation assay, rat podocytes

`CC1=C(/C=C/C(C)=C/C=C/C(C)=C/C(=O)O)C(C)(C)CCC1` [ATRA, all-trans retinoic acid] was tested, and the “apoptosis (Hoecht's Assay)” value (podocytes) was “not increased”, the “podocin immunostaining compared to control” value ([1]; HSMP) was “increased immunostaining” and the “nephrin immunostaining compared to control cells exposed to vehicle” value ([1]; heat sensitive mouse podocytes) was “nephrin immunostaining increased”. For the same compound, the “reduction of proliferation of transgenic podocytes (MTT) compared to Tg podocytes without ATRA” value ([2]; day 7 of growth restriction, p<.05) was 50%, the “reduction of proliferation of transgenic podocytes (MTT) compared to Tg podocytes without ATRA” value ([2]; day 14 of growth restriction, p<0.005) was 25% and the MTT absorbance [3] was “significantly reduced MTT absorbance”. For the same compound, the “proliferation of WT podocytes (MTT), exposed to ATRA vs without ATRA” value [4] was “no measurable difference”, the adverse side effects (normal mice) was “no weight loss, ruffled fur, withdrawal or diarrhea” and the “process formation (scanning electron microscopy)” value (cultured rat podocytes; 1 μM ATRA) was “resulted in the presence of processes”. For the same compound, the “process formation (scanning electron microscopy)” value (cultured rat podocytes; Ten 1 μM ATRA) was “marked increase in the number and length of processes”, the “rat podocyte proliferation (viable cell number by MTT assay)” value (rat podocytes; 1 μM, 5 μM, 10 μM, 50 μM, 200 μM ATRA, FIG. 1) was “reduced rat podocyte proliferation in a concentration-dependent fashion” and the “MTT absorbance compared to control cells” value (rat podocytes; rat podocytes, beginning at one μM, P<0.001) was “significantly reduced MTT absorbance”.
